Where “and” joins values, the source holds several entries; their conditions need not be identical. Identical values can stand only once. Like-named read-outs stand apart in the source and are kept apart here.
Tests used:
[1] = system: Citrobacter koseri (CKR) isolates; assay: MIC of compounds alone and combined with antibacterials, broth microdilution (CLSI); format: cell-based
Method in brief: (§1)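 First, log-phase suspensions are brought to 5.10^5 CFU/mL final in ca-MHB; plates then incubate 16-20 h at 35° C in air. Growth is judged visually, giving the compound MIC alone and the antibacterial MIC at each compound concentration.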

[2] = system: Escherichia coli (ECO) isolates; assay: as above; format: cell-based
Method in brief: as §1

CC1(C)S[C@@H]2[C@H](NC(=O)[C@H](N)c3ccc(O)cc3)C(=O)N2[C@H]1C(=O)O [AMX, Amoxicillin]
MIC ATB in combination [1]: >128 µg/mL | MIC ATB in combination ([1]; CKO ROU, AF2 @ 8 μg/mL): 8 µg/mL | MIC ([1]; strain CKO ROU, genotype TEM-1, SHV-12, CTX-M-15, OXA-1, OXA-48): >256 µg/mL | MIC ([1]; strain CKO UFR149, genotype OXA-48): >128 µg/mL | MIC ([1]; strain CKO UFR150, genotype TEM-1, OXA-48): >128 µg/mL | MIC ATB in combination [2]: >128 µg/mL and 128 µg/mL | MIC ATB in combination ([2]; ECO 4133, AF2 @ 8 μg/mL): <0.25 µg/mL | MIC ATB in combination ([2]; ECO 5302, AF2 @ 8 μg/mL): <0.25 µg/mL | MIC ATB in combination ([2]; ECO 131119, AF2 @ 8 μg/mL): <0.25 µg/mL | MIC ATB in combination ([2]; ECO 131119, CLA @ 4 μg/mL): >512 µg/mL | MIC ATB in combination ([2]; ECO 180070, AF2 @ 8 μg/mL): <0.25 µg/mL | MIC ATB in combination ([2]; ECO 180070, CLA @ 4 μg/mL): 16 µg/mL | MIC ATB in combination ([2]; ECO 190314, AF2 @ 8 μg/mL): <0.25 µg/mL | MIC ATB in combination ([2]; ECO 190314, CLA @ 4 μg/mL): 8 µg/mL | MIC ATB in combination ([2]; ECO 190317, AF2 @ 8 μg/mL): <0.25 µg/mL | MIC ATB in combination ([2]; ECO 190317, CLA @ 4 μg/mL): 64 µg/mL | MIC ATB in combination ([2]; ECO 190457, AF2 @ 8 μg/mL): <0.25 µg/mL | MIC ATB in combination ([2]; ECO 190549, AF2 @ 8 μg/mL): <0.25 µg/mL | MIC ATB in combination ([2]; ECO 190549, CLA @ 4 μg/mL): 8 µg/mL | MIC ATB in combination ([2]; ECO 200159, AF2 @ 8 μg/mL): <0.25 µg/mL | MIC ATB in combination ([2]; ECO 200159, CLA @ 4 μg/mL): 8 µg/mL | MIC ATB in combination ([2]; ECO 200259, AF2 @ 8 μg/mL): <0.25 µg/mL | MIC ATB in combination ([2]; ECO 200259, CLA @ 4 μg/mL): 8 µg/mL | MIC ATB in combination ([2]; ECO 200344, AF2 @ 8 μg/mL): <0.25 µg/mL | MIC ATB in combination ([2]; ECO 200344, CLA @ 4 μg/mL): 16 µg/mL | MIC ATB in combination ([2]; ECO 260096, AF2 @ 8 μg/mL): 0.5 µg/mL | MIC ATB in combination ([2]; ECO 260096, CLA @ 4 μg/mL): 4 µg/mL | MIC ATB in combination ([2]; ECO 260304, AF2 @ 8 μg/mL): <0.25 µg/mL | MIC ATB in combination ([2]; ECO 260304, CLA @ 4 μg/mL): 4 µg/mL | MIC ATB in combination ([2]; ECO 260508, AF2 @ 8 μg/mL): <0.25 µg/mL | MIC ATB in combination ([2]; ECO 260508, CLA @ 4 μg/mL): 64 µg/mL | MIC ATB in combination ([2]; ECO RGN238, AF2 @ 8 μg/mL): <0.25 µg/mL | MIC ATB in combination ([2]; ECO UFR15, AF2 @ 8 μg/mL): <0.25 µg/mL | MIC ATB in combination ([2]; ECO UFR16, AF2 @ 8 μg/mL): <0.25 µg/mL | MIC ATB in combination ([2]; ECO UFR18, AF2 @ 8 μg/mL): <0.25 µg/mL | MIC ATB in combination ([2]; ECO UFR19, AF2 @ 8 μg/mL): <0.25 µg/mL | MIC ATB in combination ([2]; ECO UFR32, AF2 @ 8 μg/mL): <0.25 µg/mL | MIC ATB in combination ([2]; ECO UFR39, AF2 @ 8 μg/mL): <0.25 µg/mL | MIC ATB in combination ([2]; ECO UFR41, AF2 @ 8 μg/mL): <0.25 µg/mL | MIC ATB in combination ([2]; ECO UFR45, AF2 @ 8 μg/mL): <0.25 µg/mL | MIC ATB in combination ([2]; ECO UFR61O, AF2 @ 8 μg/mL): 4 µg/mL | MIC ATB in combination ([2]; ECO UFR62, AF2 @ 8 μg/mL): <0.25 µg/mL | MIC ATB in combination ([2]; ECO UFR74, AF2 @ 8 μg/mL): <0.25 µg/mL | MIC ATB in combination ([2]; ECO UFR86, AF2 @ 8 μg/mL): 2 µg/mL | MIC ATB in combination ([2]; ECO UFR86, CLA @ 4 μg/mL): 8 µg/mL | MIC ATB in combination ([2]; ECO UFR209, CLA @ 4 μg/mL): 32 µg/mL | MIC ATB in combination ([2]; ECO UFR210, CLA @ 4 μg/mL): 8 µg/mL | MIC ATB in combination ([2]; ECO UFR211, CLA @ 4 μg/mL): 8 µg/mL | MIC ([2]; strain ECO 4133, genotype TEM-30, OXA-1): >256 µg/mL | MIC ([2]; strain ECO 5302, genotype TEM-1, OXA-1): >256 µg/mL | MIC ([2]; strain ECO 131119, genotype TEM-1, OXA-48): >1024 µg/mL | MIC ([2]; strain ECO 180070, genotype TEM-1, CTX-M-15): >256 µg/mL | MIC ([2]; strain ECO 190314, genotype CTX-M-1): >256 µg/mL | MIC ([2]; strain ECO 190317, genotype TEM-1, SHV-12, CTX-M-15, OXA-1): >1024 µg/mL | MIC ([2]; strain ECO 190457, genotype CTX-M-15, OXA-1): >256 µg/mL | MIC ([2]; strain ECO 190549, genotype CTX-M-1): >256 µg/mL | MIC ([2]; strain ECO 200159, genotype TEM-1, CTX-M-14): >256 µg/mL | MIC ([2]; strain ECO 200259, genotype CTX-M-14): >256 µg/mL | MIC ([2]; strain ECO 200344, genotype CTX-M-1): >256 µg/mL
